Data as given in PubChem BioAssay (NCI).
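Each compound was tested at five concentrations against cells in 96-well plates for 48 hours. Here, GI50 denotes the concentration required for 50% inhibition of growth. TGI: total growth inhibition.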

Columns and labels:
Assay in all cases: NCI tumour cell line growth inhibition, 48 h
[1] = test system: 786-0 renal
[2] = test system: A498 renal
[3] = test system: A549 NSCLC
[4] = test system: ACHN renal
[5] = test system: BT-549 breast
[6] = test system: CAKI-1 renal
[7] = test system: CCRF-CEM leukemia
[8] = test system: COLO 205 colon
[9] = test system: DU-145 prostate
[10] = test system: EKVX NSCLC
[11] = test system: HCC-2998 colon
[12] = test system: HCT-116 colon
[13] = test system: HCT-15 colon
[14] = test system: HL-60(TB) leukemia
[15] = test system: HOP-62 NSCLC
[16] = test system: HOP-92 NSCLC
[17] = test system: HS 578T breast
[18] = test system: HT29 colon
[19] = test system: IGROV1 ovarian
[20] = test system: K-562 leukemia
[21] = test system: KM12 colon
[22] = test system: LOX IMVI melanoma
[23] = test system: M14 melanoma
[24] = test system: MALME-3M melanoma
[25] = test system: MCF7 breast
[26] = test system: MDA-MB-231 breast
[27] = test system: MDA-MB-435
[28] = test system: MOLT-4 leukemia
[29] = test system: NCI-H226 lung
[30] = test system: NCI-H23 lung
[31] = test system: NCI-H460 lung
[32] = test system: NCI-H522 lung
[33] = test system: NCI/ADR-RES ovarian
[34] = test system: OVCAR-3 ovarian
[35] = test system: OVCAR-4 ovarian
[36] = test system: OVCAR-5 ovarian
[37] = test system: OVCAR-8 ovarian
[38] = test system: PC-3 prostate
[39] = test system: RPMI-8226 leukemia
[40] = test system: RXF 393 renal
[41] = test system: SF-268 CNS
[42] = test system: SF-295 CNS
[43] = test system: SF-539 CNS
[44] = test system: SK-MEL-2 melanoma
[45] = test system: SK-MEL-28 melanoma
[46] = test system: SK-MEL-5 melanoma
[47] = test system: SK-OV-3 ovarian
[48] = test system: SN12C renal
[49] = test system: SNB-19 CNS
[50] = test system: SNB-75 CNS
[51] = test system: SR leukemia
[52] = test system: SW-620 colon
[53] = test system: T-47D breast
[54] = test system: TK-10 renal
[55] = test system: U251 CNS
[56] = test system: UACC-257 melanoma
[57] = test system: UACC-62 melanoma
[58] = test system: UO-31 renal

**Q.** Which results are given for `Cc1cc(C)c(S(=O)(=O)Oc2ccccc2[N+](=O)[O-])c(C)c1`?
**A.** GI50 [1]: 5.58 µM; TGI [1]: > 100 µM; GI50 [2]: 1.21 µM; TGI [2]: 12.5 µM; GI50 [3]: 4.19 µM; TGI [3]: > 100 µM; GI50 [4]: 5.56 µM; TGI [4]: > 100 µM; GI50 [5]: 3.19 µM; TGI [5]: > 100 µM; GI50 [6]: 0.956 µM; TGI [6]: > 19.9 µM; GI50 [7]: 2.15 µM; TGI [7]: > 100 µM; GI50 [8]: 2.9 µM; TGI [8]: 12.9 µM; GI50 [9]: 2.38 µM; TGI [9]: > 31.5 µM; GI50 [10]: 3.26 µM; TGI [10]: > 100 µM; GI50 [11]: 2.95 µM; TGI [11]: > 100 µM; GI50 [12]: 1.44 µM; TGI [12]: > 100 µM; GI50 [13]: 1.37 µM; TGI [13]: > 100 µM; GI50 [14]: 0.367 µM; TGI [14]: 2.5 µM; GI50 [15]: 3.33 µM; TGI [15]: > 100 µM; GI50 [16]: 1.98 µM; TGI [16]: 25.4 µM; GI50 [17]: 1.42 µM; TGI [17]: 5.24 µM; GI50 [18]: 0.921 µM; TGI [18]: > 100 µM; GI50 [19]: 2.68 µM; TGI [19]: > 100 µM; GI50 [20]: 0.398 µM; TGI [20]: > 100 µM; GI50 [21]: 0.803 µM; TGI [21]: > 100 µM; GI50 [22]: 3.33 µM; TGI [22]: > 100 µM; GI50 [23]: 0.976 µM; TGI [23]: > 26.6 µM; GI50 [24]: 1.26 µM; TGI [24]: > 100 µM; GI50 [25]: 2.81 µM; TGI [25]: > 100 µM; GI50 [26]: 3.7 µM; TGI [26]: > 100 µM; GI50 [27]: 0.239 µM; TGI [27]: 0.879 µM; GI50 [28]: 1.39 µM; TGI [28]: > 100 µM; GI50 [29]: 10.6 µM; TGI [29]: > 100 µM; GI50 [30]: 4.69 µM; TGI [30]: > 100 µM; GI50 [31]: 2.4 µM; TGI [31]: > 100 µM; GI50 [32]: 1.26 µM; TGI [32]: 6.56 µM; GI50 [33]: 1.01 µM; TGI [33]: > 27.4 µM; GI50 [34]: 1 µM; TGI [34]: 3.63 µM; GI50 [35]: > 25.1 µM; TGI [35]: > 100 µM; GI50 [36]: 5.67 µM; TGI [36]: > 100 µM; GI50 [37]: 4.28 µM; TGI [37]: > 100 µM; GI50 [38]: 3.31 µM; TGI [38]: > 100 µM; GI50 [39]: 2.54 µM; TGI [39]: > 100 µM; GI50 [40]: 2.48 µM; TGI [40]: 7.83 µM; GI50 [41]: 4.57 µM; TGI [41]: > 100 µM; GI50 [42]: 1.67 µM; TGI [42]: > 24.3 µM; GI50 [43]: 2.16 µM; TGI [43]: > 23.1 µM; GI50 [44]: 3.41 µM; TGI [44]: > 100 µM; GI50 [45]: 5.46 µM; TGI [45]: > 100 µM; GI50 [46]: 2 µM; TGI [46]: 7.8 µM; GI50 [47]: 2.81 µM; TGI [47]: > 29.2 µM; GI50 [48]: 14.7 µM; TGI [48]: > 100 µM; GI50 [49]: 4 µM; TGI [49]: > 100 µM; GI50 [50]: 1.82 µM; TGI [50]: 7.04 µM; GI50 [51]: 0.443 µM; TGI [51]: > 100 µM; GI50 [52]: 0.583 µM; TGI [52]: > 100 µM; GI50 [53]: 4.79 µM; TGI [53]: > 100 µM; GI50 [54]: 4.86 µM; TGI [54]: > 100 µM; GI50 [55]: 2.36 µM; TGI [55]: > 100 µM; GI50 [56]: 4.22 µM; TGI [56]: > 100 µM; GI50 [57]: 2.46 µM; TGI [57]: > 100 µM; GI50 [58]: 3.27 µM; TGI [58]: > 100 µM
